Reference: patent US20140179681A1, “METHODS AND COMPOSITIONS OF TARGETED DRUG DEVELOPMENT” (priority 2010, published 2014)
Where a name gives a salt, the structure may show the parent alone. Read-outs that look alike come from different tables or passages of the source. Blank lines part the entries; values can stand above or below the molecule they belong to.

Tests used:
EGFR = biological target: T1, EGFR (Homo sapiens, UniProt P00533); test: EGFR in-cell Western (ICW) screening protocol (EGFR inhibition assay); type: cell-based; parameters: ICW 1 / ICW 2 / ICW Avg: unit not given here; details: for ICW assay: Table 10, % Inhibition of EGF dependent EGFR phosphorylation in A431 cells, compound 125 μM in assay; for ICW Avg / ICW 1 / ICW 2: ICW assay; for ICW Avg: average of runs 1 and 2; for ICW 1: run 1; for ICW 2: run 2
T1 construct: host or cells: A431
T1 sequence (P00533 25-1210): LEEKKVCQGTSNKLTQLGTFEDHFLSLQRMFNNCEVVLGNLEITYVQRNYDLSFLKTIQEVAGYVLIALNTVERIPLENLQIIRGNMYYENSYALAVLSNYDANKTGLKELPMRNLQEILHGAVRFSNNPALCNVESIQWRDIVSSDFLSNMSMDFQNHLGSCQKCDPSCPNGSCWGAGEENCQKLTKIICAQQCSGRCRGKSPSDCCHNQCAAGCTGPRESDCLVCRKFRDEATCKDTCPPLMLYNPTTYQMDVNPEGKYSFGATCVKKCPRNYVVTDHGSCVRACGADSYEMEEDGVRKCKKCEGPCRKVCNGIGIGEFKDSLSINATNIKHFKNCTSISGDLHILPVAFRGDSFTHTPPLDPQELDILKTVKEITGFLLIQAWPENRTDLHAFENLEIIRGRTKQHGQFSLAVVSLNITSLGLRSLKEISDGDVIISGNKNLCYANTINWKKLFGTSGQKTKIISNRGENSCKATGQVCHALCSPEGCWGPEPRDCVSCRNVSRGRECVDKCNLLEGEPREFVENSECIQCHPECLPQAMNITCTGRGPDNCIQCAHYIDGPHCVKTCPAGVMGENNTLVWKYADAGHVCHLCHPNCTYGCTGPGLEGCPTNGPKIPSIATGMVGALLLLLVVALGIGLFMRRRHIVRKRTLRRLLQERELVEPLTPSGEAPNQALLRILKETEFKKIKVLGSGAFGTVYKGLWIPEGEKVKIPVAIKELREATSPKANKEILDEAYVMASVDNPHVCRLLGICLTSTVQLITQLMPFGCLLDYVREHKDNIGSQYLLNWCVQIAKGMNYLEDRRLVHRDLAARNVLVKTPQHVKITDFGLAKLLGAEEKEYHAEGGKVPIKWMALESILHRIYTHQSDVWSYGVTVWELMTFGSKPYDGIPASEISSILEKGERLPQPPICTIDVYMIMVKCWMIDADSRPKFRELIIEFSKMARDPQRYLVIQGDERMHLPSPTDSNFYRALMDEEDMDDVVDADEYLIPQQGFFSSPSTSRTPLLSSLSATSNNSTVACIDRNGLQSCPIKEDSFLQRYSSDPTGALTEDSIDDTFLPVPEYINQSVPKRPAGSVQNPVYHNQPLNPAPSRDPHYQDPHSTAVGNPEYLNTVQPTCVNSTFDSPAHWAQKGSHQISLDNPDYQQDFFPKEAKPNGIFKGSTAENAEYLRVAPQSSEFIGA
Summary of the method: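 Serum-starved A431 cells (2 h) were pretreated with compound for 4 h at 37° C, then stimulated with EGF (10 ng/ml final, or 6.6 or 12.5 ng/ml in some runs) for 10 min. After formaldehyde fixation, phospho-EGFR (Tyr1173, or Tyr1045 in some runs) and total EGFR were detected by in-cell Western immunostaining.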

[1] = tested on: epithelial carcinoma A431 cell line; test: MTT Cell Proliferation Assay, A431 cells; type: cell-based; details: for MTT Follow-up: ratio in parentheses: ratio MDBK/A431; for MTT Assay IC50(A431/MDBK): ratio in parentheses: ratio MDBK IC50 / A431 IC50 (selectivity)
Summary of the method: (§1)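 Viability was measured by mitochondrial MTT reduction after cells were exposed to compound for 3 days in reduced-serum medium. Inhibition was calculated per plate against 0.5% DMSO controls.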

MDBK line = test: MTT Cell Proliferation Assay, MDBK cells; type: cell-based, bovine
Summary of the method: as §1

[2] = Homo sapiens, A-431, first value of 'a/b (c)', taken as A431 cells, read-out: MTT Screen, first value of cell
[3] = Bos taurus, MDBK, second value of 'a/b (c)', taken as MDBK cells, read-out: MTT Screen, second value of cell
[4] = Homo sapiens, A-431, 72 h, Table 10, first of x/y(ratio): A431, three day treatment, unit not printed (doses in μM), read-out: MTT assay (first value)
[5] = Bos taurus, MDBK, 72 h, Table 10, second of x/y(ratio): MDBK, three day treatment, unit not printed (doses in μM), read-out: MTT assay (second value)
[6] = Homo sapiens, A-431, A431 cells, first value of cell, read-out: MTT Assay IC50(A431/MDBK): A431
[7] = Homo sapiens, A-431, follow-up MTT, A431 cells, first value, read-out: MTT Follow-up: A431
[8] = Bos taurus, MDBK, MDBK cells, second value of cell, read-out: MTT Assay IC50(A431/MDBK): MDBK
[9] = Bos taurus, MDBK, follow-up MTT, MDBK cells, second value, read-out: MTT Follow-up: MDBK
[10] = first value of 'a/b (c)', taken as A431 cells, read-out: MTT Screen, first value of cell
[11] = second value of 'a/b (c)', taken as MDBK cells, read-out: MTT Screen, second value of cell

SMILES: COc1ccc(CC(=O)NC(=S)Nc2ccc(S(=O)(=O)Nc3ccc(C)c(C)c3)cc2)cc1 [AD4-11418]
ICW Screen (ICW Inhibition) (EGFR): 34.067
IC50 [1, 2]: 11.9 µM
IC50 (MDBK line; [3]): 10.2 µM

SMILES: CC1CCc2cc(F)ccc2N1S(=O)(=O)c1ccc(NC(=S)Nc2ccc(Br)cc2)cc1 (stereo not drawn) [AD4-12813]
ICW assay (EGFR): 26.1431
IC50 [1, 4]: 11.8 µM
IC50 (MDBK line; [5]): 13.6 µM

SMILES: Cc1nc(Nc2nc(CSc3nc4ccccc4[nH]3)cc(=O)[nH]2)nc2ccccc12 [compound 11582]
ICW Avg (EGFR): 49.89
ICW 1 (EGFR): 59.77
ICW 2 (EGFR): 40.01
IC50 [1, 6]: 2.43 µM
IC50 [1, 7]: 49.3 µM
MTT Follow-up: ratio in parentheses [1]: 1.13
IC50 (MDBK line; [8]): 2.44 µM
IC50 (MDBK line; [9]): 55.9 µM

SMILES: CCN(c1ccccc1)S(=O)(=O)c1ccc(NC(=S)Nc2ccccc2)cc1 [AD4-12389]
ICW assay (EGFR): 72.5659
IC50 ([1]; Table 10, first of x/y(ratio): A431, three day treatment, unit not printed (doses in μM), read-out: MTT assay (first value)): 12.2 µM
IC50 (MDBK line; Table 10, second of x/y(ratio): MDBK, three day treatment, unit not printed (doses in μM), read-out: MTT assay (second value)): 6.07 µM

SMILES: COc1ccc(-c2cc(=O)[nH]c(Nc3nc(C)c4ccc(C)cc4n3)n2)cc1OC [11800 + TFA]
ICW Avg (EGFR): 33.14
ICW 1 (EGFR): 34.26
ICW 2 (EGFR): 32.02
IC50 [1, 6]: 6.71 µM
MTT Assay IC50(A431/MDBK): ratio in parentheses [1]: 0.87
IC50 (MDBK line; [8]): 5.86 µM

SMILES: CCC(C)c1ccc(NC(=S)Nc2ccc(S(=O)(=O)Nc3ccccc3)cc2)cc1 (stereo not drawn) [AD4-12798]
ICW assay (EGFR): 49.531
IC50 [1, 4]: 4.74 µM
IC50 (MDBK line; [5]): 5.69 µM

SMILES: COc1cccc2c(C)nc(Nc3nc(-c4ccccc4)cc(=O)[nH]3)nc12 [compound 11741]
ICW Avg (EGFR): 68.05
ICW 1 (EGFR): 66.55
ICW 2 (EGFR): 69.55
IC50 [1, 6]: 2.44 µM
IC50 [1, 7]: 51.5 µM
MTT Follow-up: ratio in parentheses [1]: 1.01
IC50 (MDBK line; [8]): 2.44 µM
IC50 (MDBK line; [9]): 51.9 µM

SMILES: COc1cccc(-c2cc(=O)[nH]c(Nc3nc(C)c4cccc(OC)c4n3)n2)c1 [11513 + TFA]
ICW Avg (EGFR): 33.45
ICW 1 (EGFR): 32.64
ICW 2 (EGFR): 34.26
IC50 [1, 6]: 6.73 µM
MTT Assay IC50(A431/MDBK): ratio in parentheses [1]: 0.94
IC50 (MDBK line; [8]): 6.32 µM

SMILES: CC1CCN(S(=O)(=O)c2ccc(NC(=S)NC(=O)C3CC3)cc2)CC1 [AD4-12286]
ICW Screen (ICW Inhibition) (EGFR): 26.829
IC50 [1, 2]: 15.5 µM
IC50 (MDBK line; [3]): 29.9 µM

SMILES: O=S(=O)(Nc1cc(Cl)cc(Cl)c1)c1ccc(NC(=S)Nc2ccc(Cl)c(Cl)c2)cc1 [AD4-12528]
ICW assay (EGFR): 123.946
IC50 [1, 4]: 5.43 µM
IC50 (MDBK line; [5]): 5.3 µM

SMILES: COc1ccc2nc(Nc3nc(CSc4ccc(C)cc4)cc(=O)[nH]3)nc(C)c2c1 [compound 11617]
ICW Avg (EGFR): 29.18
ICW 1 (EGFR): 27.71
ICW 2 (EGFR): 30.66
IC50 [1, 6]: 6.01 µM
MTT Assay IC50(A431/MDBK): ratio in parentheses [1]: 3.28
IC50 (MDBK line; [8]): 19.7 µM

Further lines, with some results ahead:

ICW assay (EGFR): 29.3683
IC50 [1, 4]: 12.7 µM
SMILES: Cc1cc(C)c(NS(=O)(=O)c2ccc(NC(=S)Nc3ccc(S(N)(=O)=O)cc3)cc2)c(C)c1 [AD4-12250]
IC50 (MDBK line; [5]): 11.6 µM

ICW Avg (EGFR): 28.34
ICW 1 (EGFR): 28.77
ICW 2 (EGFR): 27.91
IC50 ([1]; A431 cells, first value of cell, read-out: MTT Assay IC50(A431/MDBK): A431): 49.4 µM
MTT Assay IC50(A431/MDBK): ratio in parentheses [1]: 0.48
SMILES: Cc1nc(Nc2nc(CSc3ccccn3)cc(=O)[nH]2)nc2ccccc12 [12740 + TFA]
IC50 (MDBK line; MDBK cells, second value of cell, read-out: MTT Assay IC50(A431/MDBK): MDBK): 23.6 µM

ICW assay (EGFR): 31.5308
IC50 [1, 4]: 30.4 µM
SMILES: COc1ccc(NC(=S)Nc2ccc(S(=O)(=O)Nc3ccccc3C)cc2)c(OC)c1 [AD4-12517]
IC50 (MDBK line; [5]): 20 µM

ICW Screen (ICW Inhibition) (EGFR): 32.38
IC50 [1, 10]: 37.8 µM
SMILES: Cc1cc(NS(=O)(=O)c2ccc(NC(=S)NC(=O)/C=C/c3ccccc3)cc2)no1 [AD4-11885]
IC50 (MDBK line; [11]): 48.3 µM

ICW Screen (ICW Inhibition) (EGFR): 41.439
IC50 [1, 2]: 10.2 µM
IC50 [1, 10]: 5.76 µM
SMILES: CN(c1ccccc1)S(=O)(=O)c1ccc(NC(=S)NC(=O)/C=C/c2ccc(F)cc2)cc1 [AD4-12280]
IC50 (MDBK line; [3]): 17.7 µM
IC50 (MDBK line; [11]): 21.2 µM

ICW Screen (ICW Inhibition) (EGFR): 40.922
IC50 [1, 2]: 9.89 µM
SMILES: Cc1cc(C)nc(NS(=O)(=O)c2ccc(NC(=S)NC(=O)/C=C/c3ccc(C(C)C)cc3)cc2)n1 [AD4-11642]
IC50 (MDBK line; [3]): 9.46 µM
